# From patent US20120028888A1, “APJ RECEPTOR COMPOUNDS” (priority 2008, published 2012)
# Non-standard residues stand in square brackets, D forms with d. Residues, ends and D or L forms follow the SMILES beside them. ξ: configuration not given here. *: point of attachment. Palmitoyl = CCCCCCCCCCCCCCCC(=O)*; ξR = N=C(N)NCCCC(N)C(=O)O
# T1: Gi-coupled receptor APJ (HEK cells stably expressing the APJ receptor) (Homo sapiens, UniProt P35414)
# T1 construct: expressed in transfected cells; host or cells: HEK cells stably expressing APJ
# T1 sequence (P35414 1-380): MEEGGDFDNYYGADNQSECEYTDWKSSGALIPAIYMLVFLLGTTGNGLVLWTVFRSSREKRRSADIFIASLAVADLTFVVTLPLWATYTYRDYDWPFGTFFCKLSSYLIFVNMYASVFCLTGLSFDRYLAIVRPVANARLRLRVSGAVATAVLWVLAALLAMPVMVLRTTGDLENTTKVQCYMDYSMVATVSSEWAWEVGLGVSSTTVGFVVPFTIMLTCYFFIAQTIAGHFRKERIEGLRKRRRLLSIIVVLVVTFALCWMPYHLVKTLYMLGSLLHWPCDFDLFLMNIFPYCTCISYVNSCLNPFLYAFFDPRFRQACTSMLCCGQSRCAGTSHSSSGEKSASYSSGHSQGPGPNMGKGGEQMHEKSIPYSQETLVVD
# B1: Compound 12 Pal-TVFRSSREKRRSADIFI-Amide (peptide)
# peptide: Palmitoyl-TVFRSSREKRRSADIFI-NH2
# SMILES: CCCCCCCCCCCCCCCC(=O)N[C@H](C(=O)N[C@H](C(=O)N[C@@H](Cc1ccccc1)C(=O)N[C@@H](CCCNC(=N)N)C(=O)N[C@@H](CO)C(=O)N[C@@H](CO)C(=O)N[C@@H](CCCNC(=N)N)C(=O)N[C@@H](CCC(=O)O)C(=O)N[C@@H](CCCCN)C(=O)N[C@@H](CCCNC(=N)N)C(=O)N[C@@H](CCCNC(=N)N)C(=O)N[C@@H](CO)C(=O)N[C@@H](C)C(=O)N[C@@H](CC(=O)O)C(=O)N[C@H](C(=O)N[C@@H](Cc1ccccc1)C(=O)N[C@H](C(N)=O)[C@@H](C)CC)[C@@H](C)CC)C(C)C)[C@@H](C)O
# B2: Compound 96 Pal-QTIAGHFRKERIEGLRKRRRLLA-Amide (peptide)
# peptide: Palmitoyl-QTIAGHFRKERIEGLRKRRRLLA-NH2
# SMILES: CCCCCCCCCCCCCCCC(=O)N[C@@H](CCC(N)=O)C(=O)N[C@H](C(=O)N[C@H](C(=O)N[C@@H](C)C(=O)NCC(=O)N[C@@H](Cc1c[nH]cn1)C(=O)N[C@@H](Cc1ccccc1)C(=O)N[C@@H](CCCNC(=N)N)C(=O)N[C@@H](CCCCN)C(=O)N[C@@H](CCC(=O)O)C(=O)N[C@@H](CCCNC(=N)N)C(=O)N[C@H](C(=O)N[C@@H](CCC(=O)O)C(=O)NCC(=O)N[C@@H](CC(C)C)C(=O)N[C@@H](CCCNC(=N)N)C(=O)N[C@@H](CCCCN)C(=O)N[C@@H](CCCNC(=N)N)C(=O)N[C@@H](CCCNC(=N)N)C(=O)N[C@@H](CCCNC(=N)N)C(=O)N[C@@H](CC(C)C)C(=O)N[C@@H](CC(C)C)C(=O)N[C@@H](C)C(N)=O)[C@@H](C)CC)[C@@H](C)CC)[C@@H](C)O
# B3: Compound 11 Pal-FRSSREKRRSADIFI-Amide (peptide)
# peptide: Palmitoyl-FRSSREKRRSADIFI-NH2
# SMILES: CCCCCCCCCCCCCCCC(=O)N[C@@H](Cc1ccccc1)C(=O)N[C@@H](CCCNC(=N)N)C(=O)N[C@@H](CO)C(=O)N[C@@H](CO)C(=O)N[C@@H](CCCNC(=N)N)C(=O)N[C@@H](CCC(=O)O)C(=O)N[C@@H](CCCCN)C(=O)N[C@@H](CCCNC(=N)N)C(=O)N[C@@H](CCCNC(=N)N)C(=O)N[C@@H](CO)C(=O)N[C@@H](C)C(=O)N[C@@H](CC(=O)O)C(=O)N[C@H](C(=O)N[C@@H](Cc1ccccc1)C(=O)N[C@H](C(N)=O)[C@@H](C)CC)[C@@H](C)CC
# Target: APJ receptor (Homo sapiens (Human), UniProt P35414)
# Test: cell-based or functional assay
# Details: not given
row,"EC50 value (nM), HTRF cAMP assay [nM]",Molecule
1,≤ 500,B1
2,≤ 500,B2
3,≤ 500,B3

# Target: T1, Gi-coupled receptor APJ (HEK cells stably expressing the APJ receptor)
# Test: HTRF cAMP assay: inhibition of NKH477 stimulated increase in cAMP
# Assay type: cell-based
# Details: read-out: EC50 value (nM), SEM
# Text: HTRF (homogeneous time resolved fluorescence) is a technology developed by Cisbio Bioassays based on TR-FRET (time-resolved fluorescence resonance energy transfer). Cisbio Bioassays has developed a wide selection of HTRF-based assays compatible with whole cells, thereby enabling functional assays to run under more physiological conditions. The IP-One assays are competitive immunoassays using cryptate-labeled anti-IPI monoclonal antibody and d2-labeled IP1. IP1 is a relatively stable downstream metabolite of IP3, and accumulates in cells following Gq receptor activation.
# cAMP kits based on a competitive immunoassay using cryptate-labeled anti-cAMP antibody and d2-labeled cAMP were used to assay the effects of APJ compounds of the present invention. This assay measures the increase in intracellular cAMP upon Gs-coupled receptor activation as well as decrease in forskolin (or a more soluble version of forskolin—NKH477) stimulated increase in cAMP upon Gi-coupled receptor activation.
row,EC50 [nM],Molecule
1,1 to 500,CCCCCCCCCCCCCCCC(=O)N[C@H](C(=O)N[C@H](C(=O)N[C@@H](Cc1ccccc1)C(=O)N[C@@H](CCCNC(=N)N)C(=O)N[C@@H](CO)C(=O)N[C@@H](CO)C(=O)N[C@@H](CCCNC(=N)N)C(=O)N[C@@H](CCC(=O)O)C(=O)N[C@@H](CCCCN)C(=O)N[C@@H](CCCNC(=N)N)C(=O)N[C@@H](CCCNC(=N)N)C(=O)N[C@@H](CO)C(=O)N[C@@H](C)C(=O)N[C@@H](CC(=O)O)C(=O)N[C@H](C(=O)N[C@@H](Cc1ccccc1)C(=O)N[C@H](C(N)=O)[C@@H](C)CC)[C@@H](C)CC)C(C)C)[C@@H](C)O [Compound 12] (Palmitoyl-TVFRSSREKRRSADIFI-NH2)
2,> 10000,CCCCCCCCCCCCCCCC(=O)N[C@@H](CCCNC(=N)N)C(=O)N1CCC[C@H]1C(=O)N[C@H](C(=O)N[C@@H](C)C(=O)N[C@@H](CC(N)=O)C(=O)N[C@@H](C)C(=O)N[C@@H](CCCNC(=N)N)C(=O)N[C@@H](CC(C)C)C(=O)N[C@@H](CCCNC(=N)N)C(=O)N[C@@H](CC(C)C)C(=O)N[C@@H](CCCNC(=N)N)C(=O)N[C@H](C(=O)N[C@@H](CO)C(=O)NCC(N)=O)C(C)C)C(C)C [Compound 75] (Palmitoyl-RPVANARLRLRVSG-NH2)
3,> 10000,CCCCCCCCCCCCCCCC(=O)N[C@H](C(=O)N[C@@H](CCCNC(=N)N)C(=O)N1CCC[C@H]1C(=O)N[C@H](C(=O)N[C@@H](C)C(=O)N[C@@H](CC(N)=O)C(=O)N[C@@H](C)C(=O)N[C@@H](CCCNC(=N)N)C(=O)N[C@@H](CC(C)C)C(=O)N[C@@H](CCCNC(=N)N)C(=O)N[C@@H](CC(C)C)C(=O)N[C@@H](CCCNC(=N)N)C(=O)N[C@H](C(=O)N[C@@H](CO)C(=O)NCC(N)=O)C(C)C)C(C)C)C(C)C [Compound 76] (Palmitoyl-VRPVANARLRLRVSG-NH2)
4,> 10000,CCCCCCCCCCCCCCCC(=O)N[C@H](C(=O)N[C@H](C(=O)N[C@@H](CCCNC(=N)N)C(=O)N1CCC[C@H]1C(=O)N[C@H](C(=O)N[C@@H](C)C(=O)N[C@@H](CC(N)=O)C(=O)N[C@@H](C)C(=O)N[C@@H](CCCNC(=N)N)C(=O)N[C@@H](CC(C)C)C(=O)N[C@@H](CCCNC(=N)N)C(=O)N[C@@H](CC(C)C)C(=O)N[C@@H](CCCNC(=N)N)C(=O)N[C@H](C(=O)N[C@@H](CO)C(=O)NCC(N)=O)C(C)C)C(C)C)C(C)C)[C@@H](C)CC [Compound 77] (Palmitoyl-IVRPVANARLRLRVSG-NH2)
5,> 10000,CCCCCCCCCCCCCCCC(=O)N[C@@H](C)C(=O)N[C@H](C(=O)N[C@H](C(=O)N[C@@H](CCCNC(=N)N)C(=O)N1CCC[C@H]1C(=O)N[C@H](C(=O)N[C@@H](C)C(=O)N[C@@H](CC(N)=O)C(=O)N[C@@H](C)C(=O)N[C@@H](CCCNC(=N)N)C(=O)N[C@@H](CC(C)C)C(=O)N[C@@H](CCCNC(=N)N)C(=O)N[C@@H](CC(C)C)C(=O)N[C@@H](CCCNC(=N)N)C(=O)N[C@H](C(=O)N[C@@H](CO)C(=O)NCC(N)=O)C(C)C)C(C)C)C(C)C)[C@@H](C)CC [Compound 78] (Palmitoyl-AIVRPVANARLRLRVSG-NH2)
6,> 10000,CCCCCCCCCCCCCCCC(=O)N[C@H](C(=O)N[C@@H](CCCNC(=N)N)C(=O)N1CCC[C@H]1C(=O)N[C@H](C(=O)N[C@@H](C)C(=O)N[C@@H](CC(N)=O)C(=O)N[C@@H](C)C(=O)N[C@@H](CCCNC(=N)N)C(=O)N[C@@H](CC(C)C)C(=O)NC(CCCNC(=N)N)C(N)=O)C(C)C)C(C)C (stereo partly shown) [Compound 80] (Palmitoyl-VRPVANARL[ξR]-NH2)
7,> 10000,CCCCCCCCCCCCCCCC(=O)N[C@H](C(=O)N[C@@H](CCCNC(=N)N)C(=O)N1CCC[C@H]1C(=O)N[C@H](C(=O)N[C@@H](C)C(=O)N[C@@H](CC(N)=O)C(=O)N[C@@H](C)C(=O)N[C@@H](CCCNC(=N)N)C(=O)N[C@@H](CC(C)C)C(N)=O)C(C)C)C(C)C [Compound 81] (Palmitoyl-VRPVANARL-NH2)
8,> 10000,CCCCCCCCCCCCCCCC(=O)N[C@H](C(=O)N[C@@H](CCCNC(=N)N)C(=O)N1CCC[C@H]1C(=O)N[C@H](C(=O)N[C@@H](C)C(=O)N[C@@H](CC(N)=O)C(=O)N[C@@H](C)C(=O)N[C@@H](CCCNC(=N)N)C(=O)N[C@@H](CC(C)C)C(=O)N[C@@H](CCCNC(=N)N)C(=O)N[C@@H](CC(C)C)C(=O)N[C@@H](CCCNC(=N)N)C(N)=O)C(C)C)C(C)C [Compound 83] (Palmitoyl-VRPVANARLRLR-NH2)
9,> 10000,CCCCCCCCCCCCCCCC(=O)N[C@H](C(=O)N[C@@H](CCCNC(=N)N)C(=O)N1CCC[C@H]1C(=O)N[C@H](C(=O)N[C@@H](C)C(=O)N[C@@H](CC(N)=O)C(=O)N[C@@H](C)C(=O)N[C@@H](CCCNC(=N)N)C(=O)N[C@@H](CC(C)C)C(=O)NC(CCCNC(=N)N)C(=O)N[C@@H](CC(C)C)C(N)=O)C(C)C)C(C)C (stereo partly drawn) [Compound 84] (Palmitoyl-VRPVANARL[ξR]L-NH2)
10,> 10000,CCCCCCCCCCCCCCCC(=O)N[C@H](C(=O)N[C@@H](CCCNC(=N)N)C(=O)N1CCC[C@H]1C(=O)N[C@H](C(=O)N[C@@H](C)C(=O)N[C@@H](CC(N)=O)C(=O)N[C@@H](C)C(=O)N[C@@H](CCCNC(=N)N)C(=O)N[C@@H](CC(C)C)C(=O)N[C@@H](CCCNC(=N)N)C(=O)N[C@@H](CC(C)C)C(=O)N[C@@H](CCCNC(=N)N)C(=O)N[C@H](C(N)=O)C(C)C)C(C)C)C(C)C [Compound 85] (Palmitoyl-VRPVANARLRLRV-NH2)
11,> 10000,CCCCCCCCCCCCCCCC(=O)N[C@H](C(=O)N[C@@H](CCCNC(=N)N)C(=O)N1CCC[C@H]1C(=O)N[C@H](C(=O)N[C@@H](C)C(=O)N[C@@H](CC(N)=O)C(=O)N[C@@H](C)C(=O)N[C@@H](CCCNC(=N)N)C(=O)N[C@@H](CC(C)C)C(=O)N[C@@H](CCCNC(=N)N)C(=O)N[C@@H](CC(C)C)C(=O)N[C@@H](CCCNC(=N)N)C(=O)N[C@H](C(=O)N[C@@H](CO)C(N)=O)C(C)C)C(C)C)C(C)C [Compound 86] (Palmitoyl-VRPVANARLRLRVS-NH2)

# Tested on: mouse heart function
# Test: Langendorff heart preparation, developed pressure
# Assay type: ex vivo
# Details: isolated perfused mouse heart, 15 minutes
# Method: A pressure-sensing balloon catheter was inserted in the LV cavity to record changes in the developed pressure. Heart function was assessed by measuring standard parameters such as heart rate, mean peak systolic pressure, mean end diastolic pressure, developed pressure, dP/dt max, and dP/dt min.
row,Molecule,"effect on mouse heart function (developed pressure, inotropic effect)"
1,CCCCCCCCCCCCCCCC(=O)N[C@H](C(=O)N[C@H](C(=O)N[C@@H](Cc1ccccc1)C(=O)N[C@@H](CCCNC(=N)N)C(=O)N[C@@H](CO)C(=O)N[C@@H](CO)C(=O)N[C@@H](CCCNC(=N)N)C(=O)N[C@@H](CCC(=O)O)C(=O)N[C@@H](CCCCN)C(=O)N[C@@H](CCCNC(=N)N)C(=O)N[C@@H](CCCNC(=N)N)C(=O)N[C@@H](CO)C(=O)N[C@@H](C)C(=O)N[C@@H](CC(=O)O)C(=O)N[C@H](C(=O)N[C@@H](Cc1ccccc1)C(=O)N[C@H](C(N)=O)[C@@H](C)CC)[C@@H](C)CC)C(C)C)[C@@H](C)O [Compound 12] (Palmitoyl-TVFRSSREKRRSADIFI-NH2),demonstrates inotropic activity
2,apelin-13 [reference compound],increase in developed pressure
